Patent publication US7915223B2, “Antimicrobial agents” (priority 2004, dated 2011)
Like-named read-outs stand apart in the source and are kept apart here. Bridge positions count the residues as written; N and C are the ends. Ends that are not written are not given here. Peptide text beside a SMILES is read from it.

Columns and labels:
[1] = Hydrophobicity estimation by reversed-phase HPLC (percent acetonitrile at elution); format: physicochemical; conditions: percent of acetonitrile at which the polymer was eluted on reversed-phase C18 HPLC
Procedure: HPLC chromatograms were performed on C18 columns (Vydak, 250 mm×4.6 or 10 mm) using a linear gradient of acetonitrile in water (1% per minute), both solvents contained 0.1% trifluoroacetic acid. The purified polymers were subjected to mass spectrometry (ZQ Waters) to confirm their composition and stored as a lyophilized powder at −20° C. Prior to being tested, fresh solutions were prepared in water, mixed by vortex, solubilized by ultrasound, centrifuged and then diluted in the appropriate medium.
In order to estimate the hydrophobicity of each polymer, the polymer was eluted with a linear gradient of acetonitrile (1% per minute) on an HPLC reversed-phase C18 column, and the percent of acetonitrile at which the polymer was eluted was used for hydrophobicity estimation (see, “ACN (%)” in Table 3 below).

Hemolysis assay = format: cell-based, human; conditions: lytic concentration inducing 50% lysis of human red blood cells in PBS, read-out: LC50 (the source's name)
Procedure: (§1) The polymer's membranolytic potential was determined against human red blood cells (RBC) in phosphate buffer solution (PBS).
(§2) Alternatively, a 10% hematocrit was used and hemolysis was determined after one hour incubation.

[2] = system: microorganisms in the saliva of healthy human volunteers; conditions: fresh human saliva 1:1 with 100 μM agent, pH 5
Procedure: A solution of the saliva with no anti-bacterial agent served as a control. […] Each of the solutions was spread over a LA plate, and the plated saliva samples were incubated overnight at 37° C. without aeration. The colonies were enumerated and counted to determine the microbicidal effect of the drug. The values of viable colony forming units (CFU) were determined as described above.

[3] = system: human red blood cells (RBC); test: Hemolysis assay; format: cell-based; conditions: human RBC, 10% hematocrit, 1 hour at 37° C., 31 μM, 94 μM and 156 μM
Procedure: as §1, §2

CC(C)C[C@H](NC(=O)CNC(=O)CNC(=O)[C@@H](N)CCCNC(=N)N)C(=O)N[C@H]1CSSC[C@@H](C(=O)N[C@H](C(=O)NCC(=O)N[C@@H](CCCNC(=N)N)C(N)=O)C(C)C)NC(=O)[C@H](C(C)C)NC(=O)[C@@H]2CSSC[C@H](NC(=O)[C@H](Cc3ccc(O)cc3)NC1=O)C(=O)N[C@@H](CCCNC(=N)N)C(=O)NCC(=O)N[C@@H](CCCNC(=N)N)C(=O)N[C@@H](Cc1ccccc1)C(=O)N2 [IB-367] (H-RGGLCYCRGRFCVCVGR-NH2; disulfide 5-14, 7-12)
ACN (%) [1]: 45%
HC50 (Hemolysis assay): 7 µM
growth of saliva microorganisms (CFU per ml versus incubation time) [2]: inhibited but proliferation is resumed after 30 minutes

CC[C@H](C)[C@H](NC(=O)[C@H](CCC(=O)O)NC(=O)[C@H](CCC(=O)O)NC(=O)[C@H](Cc1ccccc1)NC(=O)[C@H](CC(=O)O)NC(=O)CNC(=O)[C@H](CC(N)=O)NC(=O)CNC(=O)CNC(=O)CNC(=O)CNC(=O)[C@@H]1CCCN1C(=O)[C@H](CCCNC(=N)N)NC(=O)[C@@H]1CCCN1C(=O)[C@H](N)Cc1ccccc1)C(=O)N1CCC[C@H]1C(=O)N[C@@H](CCC(=O)O)C(=O)N[C@@H](CCC(=O)O)C(=O)N[C@@H](Cc1ccc(O)cc1)C(=O)N[C@@H](CC(C)C)C(=O)O [bivalirudin]
hemolytic activity [3]: merely a “background level” activity

GIGKFLKKAKKFGKAFVKILKK-NH2 [MSI-78]
HC50 (Hemolysis assay; red blood cells (RBC)): 45 µM
hemolytic activity [3]: high degree of hemolysis
